Results reported in PubChem BioAssay (NCI).
Values joined by “and” are separate entries in the source; they are usually repeats but may differ in a detail not shown here. Equal entries are not always repeated.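 96-well plates; 48 h exposure; 5 concentrations. Endpoints by linear interpolation between flanking doses. Not reached: highest tested concentration assigned. GI50 marks 50% less growth. TGI marks complete inhibition of growth.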

These compounds were tested on SF-539 CNS (assay: NCI anticancer screen, dose series, 48 h).

| Structure (SMILES) | TGI [µM] |
| --- | --- |
| CNc1cc2oc(=O)cc(C)c2cc1C | > 100 |

What follows are compounds tested on RXF 393 renal (assay: NCI anticancer screen, dose series, 48 h).

| Structure (SMILES) | GI50 | TGI |
| --- | --- | --- |
| Nc1c(C(=O)Nc2ccccn2)sc2nc3c(cc12)C(=O)CCC3 | 1.11 µM | 8.88 µM |
| Cc1nc2c(Br)cc(Br)cc2c(=O)n1-c1nnc(-c2cccc(Cl)c2Cl)c(N)n1 | 26.2 µM | > 100 µM |
| N#CC(I)CS(=O)(=O)c1ccccc1 (stereo not drawn) | 4.1 µM | 13 µM |
| COc1ccc2c(=O)oc3c(OC)cc(CCN(C)C)c4c(=O)oc1c2c34 | 18 µM and 7.95 µM | 35.2 µM and 16.8 µM |
| COc1ccc(Cl)cc1NC(=O)c1ccc(NC2=C(Cl)C(=O)N(Cc3ccccc3)C2=O)cc1 | 21.3 µM | 79.3 µM |
| Cc1cccc(NC2=C(Cl)C(=O)c3nc(C)ccc3C2=O)c1 | 1.46 µM | 2.84 µM |
| COc1cc2c(cc1OCCCN1CCN(CCCOc3cc4c(cc3OC)C(=O)N3CC(F)(F)C[C@H]3C=N4)CC1)N=C[C@@H]1CC(F)(F)CN1C2=O | 2.14 µM | 4.52 µM |
| CCCCCCCCSC1=C(Cl)C(=O)C(OC)=C(OC)C1=O |  | 30.3 µM |
| COC(=O)C1=CN(CC2=CC(=O)C(C)=CC2=O)C=C(C(=O)OC)C1c1ccccc1OC | 16.2 µM | 32.3 µM |
| COc1cccc2c1O/C(=C\c1ccc([N+](=O)[O-])s1)C2=O | 2.6 µM | > 25.3 µM |
| COC(=O)/C=C/c1cc(OC(C)=O)c2c(c1)C(C(=O)OC)C(c1ccc(OC(C)=O)c(OC(C)=O)c1)O2 (stereo not drawn) | 0.167 µM | 55.2 µM |
| O=C(O)c1ccc(CNCc2ccccc2)cc1 |  | > 100 µM |
| CCOC(=O)Nc1c(C)nc2ccccn12 | > 100 µM | > 100 µM |
| CC(C)=CCC1=C(O)c2ccccc2C(=O)C1=O | > 100 µM | > 100 µM |
| O=[N+]([O-])c1ccccc1N=Nc1c(O)[nH]c2c(Cl)cc(Cl)cc12 |  | > 59.8 µM |
| NC(=S)N/N=C/c1ncccc1O |  | 7.82 µM and 42.6 µM |
| C=C(CN(C)Cc1ccccc1)c1ccc(NC(=O)c2ccc(C(=C)CN(C)Cc3ccccc3)cc2)cc1 | 32 µM | 99.3 µM |
| O=C(CC(=O)Nc1ccccc1)NNC(Sc1ccccc1)c1cc(N=Nc2ccc(Br)cc2)ccc1O (stereo not drawn) |  | > 10 µM |
| Cc1cc(C(=O)CSC(=S)SC(C)(C)C)ccc1Cl |  | 29 µM |
| C=CC12CCN(CC1)C(C(O)c1ccnc3ccc(OC)cc13)C2 (stereo not drawn) | 80 µM | > 100 µM |
| O=C(Nc1nc(-c2c[nH]c3ccccc23)cs1)c1n[nH]c(=O)c2ccccc12 | 0.446 µM | 20.7 µM |
| CN(C)CCN1CCC(Cc2ccccc2)CC1 | > 80 µM | > 80 µM |
| COc1cc2c3c(n(C)c(=O)c2cc1OC)-c1cc2c(cc1C3=O)OCO2 |  | > 62.4 µM |
| COc1ccc(/C=C\c2cc(OC)c(OC)c(OC)c2)cc1OCC(=O)O |  | 39.2 µM |
| CCSc1nc(N=Cc2ccccc2O)c2cn[nH]c2n1 | 12.9 µM | 44.6 µM |
| CSC[C@H](NC(=O)COc1cccc2cnccc12)C(=O)NC(Cc1ccccc1)C(O)C(=O)N1CSC[C@H]1C(=O)NC(C)(C)C (stereo partly drawn) |  | 99.8 µM |
| O=C(Nc1ncc(Cc2cccc(C(F)(F)F)c2)s1)c1ccc2c(c1)OCCO2 | 0.232 µM | 0.783 µM |
| C[C@H](CCOc1cccc(CC(=O)O)c1)N(Cc1cccc(C(F)(F)F)c1Cl)CC(c1ccccc1)c1ccccc1 | 4.18 µM | 16.2 µM |
| CNc1cc2oc(=O)cc(C)c2cc1C |  | > 100 µM |

The compounds below were run on MCF7 breast (assay: NCI anticancer screen, dose series, 48 h).

| Structure (SMILES) | GI50 [µM] | TGI |
| --- | --- | --- |
| Nc1c(C(=O)Nc2ccccn2)sc2nc3c(cc12)C(=O)CCC3 | 0.435 | > 100 µM |
| Cc1nc2c(Br)cc(Br)cc2c(=O)n1-c1nnc(-c2cccc(Cl)c2Cl)c(N)n1 | 26.7 | > 100 µM |
| N#CC(I)CS(=O)(=O)c1ccccc1 (stereo not drawn) | 16.7 | 39.9 µM |
| COc1ccc2c(=O)oc3c(OC)cc(CCN(C)C)c4c(=O)oc1c2c34 |  | 12.9 µM |
| COc1ccc(Cl)cc1NC(=O)c1ccc(NC2=C(Cl)C(=O)N(Cc3ccccc3)C2=O)cc1 | 5.92 | 34.3 µM |
| Cc1cccc(NC2=C(Cl)C(=O)c3nc(C)ccc3C2=O)c1 | 0.656 | 3.06 µM |
| COc1cc2c(cc1OCCCN1CCN(CCCOc3cc4c(cc3OC)C(=O)N3CC(F)(F)C[C@H]3C=N4)CC1)N=C[C@@H]1CC(F)(F)CN1C2=O | 2.09 | 20.2 µM |
| CCCCCCCCSC1=C(Cl)C(=O)C(OC)=C(OC)C1=O |  | 17.4 µM |
| COC(=O)C1=CN(CC2=CC(=O)C(C)=CC2=O)C=C(C(=O)OC)C1c1ccccc1OC | 24.4 | 69.8 µM |
| COc1cccc2c1O/C(=C\c1ccc([N+](=O)[O-])s1)C2=O | 2.04 | > 100 µM |
| COC(=O)/C=C/c1cc(OC(C)=O)c2c(c1)C(C(=O)OC)C(c1ccc(OC(C)=O)c(OC(C)=O)c1)O2 (stereo not drawn) | 0.0353 | 48.6 µM |
| O=C(O)c1ccc(CNCc2ccccc2)cc1 |  | > 100 µM |
| CCOC(=O)Nc1c(C)nc2ccccn12 | > 100 | > 100 µM |
| CC(C)=CCC1=C(O)c2ccccc2C(=O)C1=O | 21.8 | > 100 µM |
| O=[N+]([O-])c1ccccc1N=Nc1c(O)[nH]c2c(Cl)cc(Cl)cc12 |  | > 100 µM |
| NC(=S)N/N=C/c1ncccc1O | 2.55 | > 37.5 µM and 183 µM |
| C=C(CN(C)Cc1ccccc1)c1ccc(NC(=O)c2ccc(C(=C)CN(C)Cc3ccccc3)cc2)cc1 | 59.3 | > 100 µM |
| O=C(CC(=O)Nc1ccccc1)NNC(Sc1ccccc1)c1cc(N=Nc2ccc(Br)cc2)ccc1O (stereo not drawn) |  | > 10 µM |
| Cc1cc(C(=O)CSC(=S)SC(C)(C)C)ccc1Cl |  | > 100 µM |
| C=CC12CCN(CC1)C(C(O)c1ccnc3ccc(OC)cc13)C2 (stereo not drawn) | 84.3 | > 100 µM |
| O=C(Nc1nc(-c2c[nH]c3ccccc23)cs1)c1n[nH]c(=O)c2ccccc12 | 2.01 | > 100 µM |
| CN(C)CCN1CCC(Cc2ccccc2)CC1 | > 80 | > 80 µM |
| COc1cc2c3c(n(C)c(=O)c2cc1OC)-c1cc2c(cc1C3=O)OCO2 |  | > 100 µM |
| COc1ccc(/C=C\c2cc(OC)c(OC)c(OC)c2)cc1OCC(=O)O |  | > 100 µM |
| CCSc1nc(N=Cc2ccccc2O)c2cn[nH]c2n1 | 19.9 | 59.4 µM |
| CSC[C@H](NC(=O)COc1cccc2cnccc12)C(=O)NC(Cc1ccccc1)C(O)C(=O)N1CSC[C@H]1C(=O)NC(C)(C)C (stereo partly drawn) |  | > 100 µM |
| O=C(Nc1ncc(Cc2cccc(C(F)(F)F)c2)s1)c1ccc2c(c1)OCCO2 | 0.175 | > 100 µM |
| C[C@H](CCOc1cccc(CC(=O)O)c1)N(Cc1cccc(C(F)(F)F)c1Cl)CC(c1ccccc1)c1ccccc1 | 3.53 | 17.9 µM |
| CNc1cc2oc(=O)cc(C)c2cc1C |  | > 100 µM |

The compounds below were run on HT29 colon (assay: NCI anticancer screen, dose series, 48 h).

| Structure (SMILES) | GI50 | TGI |
| --- | --- | --- |
| Nc1c(C(=O)Nc2ccccn2)sc2nc3c(cc12)C(=O)CCC3 | 0.47 µM | > 100 µM |
| Cc1nc2c(Br)cc(Br)cc2c(=O)n1-c1nnc(-c2cccc(Cl)c2Cl)c(N)n1 | 30.3 µM | > 100 µM |
| N#CC(I)CS(=O)(=O)c1ccccc1 (stereo not drawn) | 2 µM | 4.51 µM |
| COc1ccc2c(=O)oc3c(OC)cc(CCN(C)C)c4c(=O)oc1c2c34 | 13.7 µM and 5.51 µM | 27 µM and 12.6 µM |
| COc1ccc(Cl)cc1NC(=O)c1ccc(NC2=C(Cl)C(=O)N(Cc3ccccc3)C2=O)cc1 | 4.8 µM | > 100 µM |
| Cc1cccc(NC2=C(Cl)C(=O)c3nc(C)ccc3C2=O)c1 | 2.94 µM | 11.9 µM |
| COc1cc2c(cc1OCCCN1CCN(CCCOc3cc4c(cc3OC)C(=O)N3CC(F)(F)C[C@H]3C=N4)CC1)N=C[C@@H]1CC(F)(F)CN1C2=O | 3.61 µM | > 100 µM |
| CCCCCCCCSC1=C(Cl)C(=O)C(OC)=C(OC)C1=O |  | 34.8 µM |
| COC(=O)C1=CN(CC2=CC(=O)C(C)=CC2=O)C=C(C(=O)OC)C1c1ccccc1OC | 40.9 µM | > 100 µM |
| COc1cccc2c1O/C(=C\c1ccc([N+](=O)[O-])s1)C2=O | 10.3 µM | 21.9 µM |
| COC(=O)/C=C/c1cc(OC(C)=O)c2c(c1)C(C(=O)OC)C(c1ccc(OC(C)=O)c(OC(C)=O)c1)O2 (stereo not drawn) | 2.65 µM | > 77.5 µM |
